From patent publication US4902791A, “Nitrosourea derivatives, process for their preparation and medicaments containing them” (Sanofi S.A., priority 1983, dated 1990)
Converted amounts (≈) assume the structure as drawn.

Columns and labels:
[1] = tested on: L 1210 leucemia; settings: IMBACH et al; cited from earlier work
[2] = tested on: Tumor LEWIS 3LL; assay: "in vivo" activity on Lewis tumor, 20 mg/kg i.p. days 1, 5, 9; design: species or system mouse; settings: for percentage of cured mice: surviving more than 60 days
Method: Procedure was under the conditions which have just been described previously with regard to melanoma B16, by injecting the tumor cells, in the proportion of 2×10^6 per mouse, in the volume of 0.2 ml.
(§1) The protocol was identical for the 3 tumors and the 5 compounds of the invention to be tested.
(§2) As regards the experimental series to be treated, each mouse received, at days 1, 5 and 9, intraperitoneally, a dose of 20 mg/kg of the compound to be tested, in the volume of 0.2 ml of neutralized and sterilized olive oil.
(§3) As regards the control series, each mouse received, intraperitoneally, 0.2 ml of neutralized and sterilized olive oil.
(§4) The results are expressed by the relative increase in survival (T/C×100) calculated from the average survival of the treated animals (T) and that of the control animals (C)
(§5) The mice surviving more than 60 days were considered as cured.
(§6) The figures between parentheses indicate the percentage of cured mice.

[3] = tested on: L 1210 IGR TUMOR; assay: "in vivo" activity on L1210 IGR tumor, 5 mg/kg i.p. days 1, 5, 9; design: species or system mouse
Method: (§7) The experiments were identical to those described in preceding paragraph 4 but lower doses were used.
The same protocol was carried out with the tumor L1210 IGR, by inoculating 10^5 tumor cells of L1210 IGR intraperitoneally in the volume of 0.2 ml then, at days 1, 5 and 9, there were injected intraperitoneally 5 mg/kg of each of the compounds to be tested.

[4] = tested on: L 1210 USA Tumor; assay: "in vivo" activity on L1210 U.S.A. tumor, 5 mg/kg i.p. days 1, 5, 9; design: species or system mouse
Method: The tumor L1210 U.S.A. is more resistant than tumor L1210 IGR.
as §7
There were inoculated into the mice, 10^5 tumor cells of L1210 U.S.A. intraperitoneally in a volume of 0.2 ml.
At days 1, 5 and 9, the compounds of the invention under test were injected intraperitoneally, at a lower dose than that used in the experiment described at 4, that is to say in the proportion of 5 mg/kg.

[5] = tested on: melanoma B16; assay: "in vivo" activity on melanoma B16, 20 mg/kg i.p. days 1, 5, 9; design: species or system mouse; settings: for percentage of cured mice: surviving more than 60 days
Method: Female C57 B 1/6 mice were used, about 8 weeks old and weighing about 20 g, from the IFFA-CREDO center.
At day "0", each mouse received intraperitoneally an inoculum of 2×10^6 tumor cells in a volume of 0.5 ml.
After tumoral graft, distribution at random was carried out as indicated above, to obtain a control series of 8 cages and 5 experimental series of 4 cages each, and of which the mice were intended to be treated by the compounds of the invention.
as §1, §2, §3, §4, §5, §6

[6] = tested on: L 1210 cells; assay: cytotoxic index after 1 h contact, potential "in vivo" activity (TEST N° 2); assay type: cell-based, mouse; design: key to CYTOTOXIC INDEX: N.S.: not significant; settings: for CYTOTOXIC INDEX: 1 hour contact at dose giving 20% index, read after 48 hours; for POTENTIAL "IN VIVO" ACTION: active if cytotoxic index ≥40%
Method: (§8) The test used is that of W. J. Durkin et al. Cancer Research 1979, 39, 402-407, modified.
(§9) All the nitrosoureas were dissolved in 70% ethanol in the proportion of 10 mg/ml.
2--Determination of the potential "in vivo" activity
L 1210 cells, under conditions similar to the preceding protocol, were contacted for 1 hour with a dose of the various products tested corresponding to a cytotoxic index equal to 20%. After this time, the cells were placed in culture medium not containing nitrosoureas and incubated at 37° C. After 48 hours, the cytotoxic index was determined.

[7] = tested on: L 1210 cell; assay: 20% cytotoxic index, trypan blue exclusion, 24 h (TEST N° 1); assay type: cell-based, mouse; design: key to DOSE CORRESPONDING TO A 20% CYTOTOXIC INDEX: N.S.: not significant; settings: L1210 cells, 24 hours at 37° C.; for IC20: Mus musculus, read-out: DOSE COR[…] A 20% CYTOTOXIC INDEX, read-out: DOSE CORRESPONDING TO A 20% CYTOTOXIC INDEX
Method: as §8, §9
1--Determination of the 20% cytotoxic index
100 μl of an L 1210 cell suspension (10^6 cells per ml) in R P M I 1640 culture medium supplemented with 10% of fetal calf serum and 40 μg/ml of gentamycin, containint various doses of the products to be tested (0 to 100 μg/ml) were incubated 24 hours at 37° C. At the end of this time, the cell viability is determined by the trypan blue exclusion test. The cytotoxic index is defined by the formula: [formula]
The amount of ethanol is the same in the cultures containing the products to be tested and in the control cultures (this amount has no effect either on growth nor on cell viability).
For each product the dose which gives a cytotoxic index of 20% is determined.

[8] = tested on: leucemia L 1210 IGR; assay: "in vivo" activity on leucemia L1210 IGR, 20 mg/kg i.p. days 1, 5, 9; design: species or system mouse; settings: for percentage of cured mice: surviving more than 60 days
Method: Female DBA2 mice were used, about 8 weeks old and weighing about 20 g from the IFFA-CREDO center (les Oncins, 69210 Arbresles)
At day "0", each mouse received intraperitoneally an inoculum of […] in a volume of 0.2 ml.
After tumoral graft, the mice were distributed at random into 21 cages of 5 animals, themselves then distributed, by drawing lots, into 6 experimental series. Within these 6 experimental series, there were constituted a control series of 6 cages and 5 experimental series of 3 cages each, and of which the mice were intended to be treated by the compounds of the invention.
as §1, §2, §3, §4, §5, §6

[9] = tested on: leucemia L1210; assay: effective "in vivo" activity in the mouse, leucemia L1210, compound 2, i.p. days 1, 5, 9
Method: The experimentation which is reported below used the compound 2 prepared according to the above example 6 (Ref. IC 81 1183).
The mice (female, average weight 20 g) used were F1 /DBA2 /C57 /B1 (Animal selection and breeding center of the Laboratories of the CNRS, Orleans, La Source).
The mice distributed in cages by drawing lots were inoculated on day "0" with 10^5 leucemia L1210 cells.
The animals were treated with the compound IC 81 1183 intraperitoneally on days 1, 5 and 9.
The suspensions were prepared just before the injection: product 2+neutralized and sterilized olive oil.
The mortality of the animals was observed regularly, the relative increase in the survival (T/C×100) was calculated from the average survival of the treated animals (T) and that of the control animals (C).

[10] = compared with literature curves

Structure (SMILES): CC1(C)O[C@@H]2[C@@H](COC(=O)c3ccc([N+](=O)[O-])cc3)OC(NC(=O)N(CCCl)N=O)[C@@H]2O1 (some centres unmarked) [RFCNU, 1-(2-chloro-ethyl)3-(ribofuranosyl-2',3'-isopropylidene-5-paranitro benzoate)-nitrosourea]
- oncostatic action on L 1210 leucemia [1]: oncostatic action

Structure (SMILES): CO[C@@H]1C[C@@H](O)[C@H](O)[C@@H](CNC(=O)N(CCCl)N=O)O1 [IC 1350]
- relative increase in survival (T/C×100) [2]: 325
- percentage of cured mice [2]: 40%
- Average survival ±2 σm [3]: 14,3 ± 1,23
- Median survival [3]: 14,25
- T/C × 100 (average survival) [3]: 158
- T/C × 100 (median survival) [3]: 157
- Average survival ±2 σm [4]: 10,5 ± 0,74
- Median survival [4]: 10,25
- T/C × 100 (average survival) [4]: 126
- T/C × 100 (median survival) [4]: 118
- relative increase in survival (T/C×100) [5]: 225
- percentage of cured mice [5]: 5%
- CYTOTOXIC INDEX [6]: N.S.
- DOSE CORRESPONDING TO A 20% CYTOTOXIC INDEX [7]: N.S.
- relative increase in survival (T/C×100) [8]: 362
- percentage of cured mice [8]: 20%

Structure (SMILES): CC(=O)OC[C@H]1OC(OC(C)=O)[C@H](NC(=O)N(CCCl)N=O)[C@@H](OC(C)=O)[C@@H]1OC(C)=O (some centres unmarked) [GCNU, 3-(2-chloro-1-ethyl-2'-desoxy-glucopyranosyl-14,3',4",6'-tetracetate)nitrosourea]
- oncostatic action on L 1210 leucemia [1]: oncostatic action

Structure (SMILES): CO[C@@H]1C[C@@H](NC(=O)N(CCCl)N=O)[C@H](OC)[C@@H](C)O1 [IC 1373, Methyl 3-[3-(2-chloroethyl) 3-nitrosoureido] 2,3,6-tridesoxy 4-O-methyl alpha-D-arabinohexopyranoside]
- relative increase in survival (T/C×100) [2]: 316
- percentage of cured mice [2]: 30%
- Average survival ±2 σm [3]: 12,9 ± 0,55
- Median survival [3]: 13,1
- T/C × 100 (average survival) [3]: 142
- T/C × 100 (median survival) [3]: 145
- Average survival ±2 σm [4]: 10,6 ± 0,44
- Median survival [4]: 10,6
- T/C × 100 (average survival) [4]: 123
- T/C × 100 (median survival) [4]: 122
- relative increase in survival (T/C×100) [5]: 165
- percentage of cured mice [5]: 0%
- CYTOTOXIC INDEX [6]: 68%
- POTENTIAL "IN VIVO" ACTION [6]: + (if the cytotoxic index was equal to or greater than 40%, the product concerned would be active "in vivo" in the mouse)
- IC20 [7]: 80 µg/mL (≈ 258 µM)
- relative increase in survival (T/C×100) [8]: .infin. (The sign 00 indicates that 50% at least of the mice were cured)
- percentage of cured mice [8]: 100%

Structure (SMILES): CC(=O)O[C@@H]1[C@H](OC(C)=O)COC(NC(=O)N(CCCl)N=O)[C@@H]1OC(C)=O (some centres unmarked) [RPCNU, 1-(2-chloro-ethyl) 3-(ribopyranosyl-2',3',4'-triacetate)-nitrosourea]
- oncostatic action on L 1210 leucemia [1]: oncostatic action

Structure (SMILES): CO[C@@H]1C[C@@H](N(C)C(=O)N(CCCl)N=O)[C@H](O)[C@@H](C)O1 [IC 1375, Methyl 3-[3-(2-chloroethyl) 1-methyl 3-nitrosoureido] 2,3,6-tridesoxy α-D-arabinohexopyranoside]
- CYTOTOXIC INDEX [6]: 69%
- POTENTIAL "IN VIVO" ACTION [6]: + (if the cytotoxic index was equal to or greater than 40%, the product concerned would be active "in vivo" in the mouse)
- IC20 [7]: 60 µg/mL (≈ 194 µM)

Structure (SMILES): CO[C@@H]1C[C@@H](NC(=O)N(CCCl)N=O)[C@H](O)[C@@H](C)O1 [IC 1183, Methyl 3-[3-(2-chloroethyl) 3-nitrosoureido] 2,3,6-tridesoxy α-D-arabinohexopyranoside]
- relative increase in survival (T/C×100) [2]: .infin. (The sign 00 indicates that 50% at least of the mice were cured)
- percentage of cured mice [2]: 75%
- Average survival ±2 σm [3]: 18,7 ± 1,30
- Median survival [3]: 19
- T/C × 100 (average survival) [3]: 207
- T/C × 100 (median survival) [3]: 210
- T/C (×100) ([9]; 1.25 mg/kg i.p. days 1, 5, 9): 118
- T/C (×100) ([9]; 2.50 mg/kg i.p. days 1, 5, 9): 158
- T/C (×100) ([9]; 5 mg/kg i.p. days 1, 5, 9): 170
- T/C (×100) ([9]; 10 mg/kg i.p. days 1, 5, 9): 220
- T/C (×100) ([9]; 20 mg/kg i.p. days 1, 5, 9): 00 (T/C=00: for definition: more than 50% of the treated animals were finally cured)
- T/C (×100) ([9]; 40 mg/kg i.p. days 1, 5, 9): 00 (T/C=00: for definition: more than 50% of the treated animals were finally cured)
- T/C (×100) ([9]; 50 mg/kg i.p. days 1, 5, 9): 100
- T/C above 40 mg/kg ([9]; after 40 mg/kg, rise in toxicity): sudden drop of the T/C
- curve of efficiency vs CCNU and Me CCNU [9, 10]: very distinctly higher than those obtained by CCNU and Me CCNU
- curve of efficiency vs RFCNU and RPCNU [9, 10]: as good as that obtained with RFCNU and RPCNU
- animals cured finally ([9]; doses of 20 and 40 mg/kg): all the animals at doses of 20 and 40 mg/kg were cured finally
- Toxicity ([9]; ≥60 mg/kg i.p. days 1, 5, 9): Toxicity
- Average survival ±2 σm [4]: 13,5 ± 0,91
- Median survival [4]: 14,0
- T/C × 100 (average survival) [4]: 157
- T/C × 100 (median survival) [4]: 161
- relative increase in survival (T/C×100) [5]: 234
- percentage of cured mice [5]: 5%
- CYTOTOXIC INDEX [6]: 77%
- POTENTIAL "IN VIVO" ACTION [6]: + (if the cytotoxic index was equal to or greater than 40%, the product concerned would be active "in vivo" in the mouse)
- IC20 [7]: 50 µg/mL (≈ 169 µM)
- relative increase in survival (T/C×100) [8]: .infin. (The sign 00 indicates that 50% at least of the mice were cured)
- percentage of cured mice [8]: 100%
